Where two headings read alike, the source gives them in different places.
What was measured:
Assay type in all cases: in vivo
[1] = tested on: Phytophthora infestans (Tomatoes); conditions: one or two days before inoculation
[2] = tested on: Puccinia recondita (Wheat); assay: Foliar fungal disease test on plants: Puccinia recondita (Wheat)
Method: (§1) The compounds were tested against a variety of foliar fungal diseases of plants. The technique employed was as follows.
(§2) The plants were grown in John Innes Potting Compost (No 1 or 2) in 4 cm diameter minipots. The test compounds were formulated either by bead milling with aqueous DISPERSOL T or as a solution in acetone or acetone/ethanol which was diluted to the required concentration immediately before use. The formulations (100 ppm active ingredient) were sprayed on to the foliage or applied to the roots of the plants in the soil. The sprays were applied to maximum retention and the root drenches to a final concentration equivalent to approximately 40 ppm a.i. in dry soil. TWEEN 20 was added to give a final concentration of 0.05% when the sprays were applied to cereals.
[…] An exception was the test on Erysiphe graminis in which the plants were inoculated 24 hours before treatment. Foliar pathogens were applied by spray as zoosporangial suspensions onto the leaves of test plants. After inoculation, the plants were put into an appropriate environment to allow infection to proceed and then incubated until the disease was ready for assessment. The period between inoculation and assessment varied from four to fourteen days according to the disease and environment.
(§3) The disease level present (i.e. leaf area covered by actively sporulating disease) on each of the treated plants was recorded using the following assessment scale:
(§4) Each assessment was then expressed as a percentage of the level of disease present on the untreated control plants. This calculated value is referred to as a POCO (Percentage of Control) value. An example of a typical calculation is as follows:
(§5) Disease level on untreated control=90
(§6) Disese level on treated plant=30 [formula]
(§7) This calculated POCO value is then rounded to the nearest of the values in the 9-point assessment scale shown above. In this particular example, the POCO value would be rounded to 30. If the calculated POCO falls exactly mid-way between two of the points, it is rounded to the lower of the two values.

[3] = tested on: Septoria nodorum (Wheat); assay: Foliar fungal disease test on plants: Septoria nodorum (Wheat); conditions: one or two days before inoculation
Method: as §1
as §2, with “The formulations (100 ppm active ingredient) were sprayed on to the foliage or applied to the roots of the plants in the soil.” left out
(§8) For most of the tests the compounds were applied to the soil (roots) or to the foliage (by spraying) one or two days before the plant was inoculated with the disease. An exception was the test on Erysiphe graminis in which the plants were inoculated 24 hours before treatment. Foliar pathogens were applied by spray as zoosporangial suspensions onto the leaves of test plants. After inoculation, the plants were put into an appropriate environment to allow infection to proceed and then incubated until the disease was ready for assessment. The period between inoculation and assessment varied from four to fourteen days according to the disease and environment.
as §3, §4, §5, §6, §7

[4] = tested on: Venturia inaequalis (Apples); assay: Foliar fungal disease test on plants: Venturia inaequalis (Apples); conditions: one or two days before inoculation
Method: as §1
as §2, with “The formulations (100 ppm active ingredient) were sprayed on to the foliage or applied to the roots of the plants in the soil.” left out
as §8, §3, §4, §5, §6, §7

[5] = tested on: Erysiphe graminis tritici (Wheat); assay: Foliar fungal disease test on plants: Erysiphe graminis tritici (Wheat); conditions: plants inoculated 24 hours before treatment
Method: as §1
as §2, with “The formulations (100 ppm active ingredient) were sprayed on to the foliage or applied to the roots of the plants in the soil.” left out
as §8, §3, §4, §5, §6, §7

[6] = tested on: Plasmopara viticola (Vines); assay: Foliar fungal disease test on plants: Plasmopara viticola (Vines); conditions: one or two days before inoculation
Method: as §1
as §2, with “The formulations (100 ppm active ingredient) were sprayed on to the foliage or applied to the roots of the plants in the soil.” left out
as §8, §3, §4, §5, §6, §7

[7] = tested on: Pyricularia oryzae (Rice); conditions: one or two days before inoculation
[8] = tested on: Thanatephorus cucumeries (Rice); assay: Foliar fungal disease test on plants: Thanatephorus cucumeries (Rice); conditions: one or two days before inoculation
Method: as §1
as §2, with “The formulations (100 ppm active ingredient) were sprayed on to the foliage or applied to the roots of the plants in the soil.” left out
as §8, §3, §4, §5, §6, §7

[9] = 100 ppm a.i. foliar spray or root drench (approx. 40 ppm in dry soil)
[10] = 100 ppm a.i. foliar spray or root drench (approx. 40 ppm in dry soil), one or two days before inoculation
[11] = 100 ppm a.i. foliar spray or root drench, plants inoculated with Puccinia recondita 48 hours before treatment

Structure (SMILES)	POCO (Percentage of Control) disease level, Phytophthora infestans (Tomatoes) [1, 9]	POCO (Percentage of Control) disease level, Puccinia recondita (Wheat) [2, 10]	POCO (Percentage of Control) disease level, Septoria nodorum (Wheat) [3, 9]	POCO (Percentage of Control) disease level, Venturia inaequalis (Apples) [4, 9]	POCO (Percentage of Control) disease level, Erysiphe graminis tritici (Wheat) [5, 9]	POCO (Percentage of Control) disease level, Plasmopara viticola (Vines) [6, 9]	POCO (Percentage of Control) disease level, Pyricularia oryzae (Rice) [7, 9]	POCO (Percentage of Control) disease level, Phytophthora infestans (Tomatoes) ([1]; 10 ppm foliar spray only)	POCO (Percentage of Control) disease level, Puccinia recondita (Wheat) ([2]; 10 ppm foliar spray only, plants inoculated with Puccinia recondita 48 hours before treatment)	POCO (Percentage of Control) disease level, Thanatephorus cucumeries (Rice) ([8]; 10 ppm foliar spray only)	POCO (Percentage of Control) disease level, Septoria nodorum (Wheat) ([3]; 10 ppm foliar spray only)	POCO (Percentage of Control) disease level, Venturia inaequalis (Apples) ([4]; 10 ppm foliar spray only)	POCO (Percentage of Control) disease level, Erysiphe graminis tritici (Wheat) ([5]; 10 ppm foliar spray only)	POCO (Percentage of Control) disease level, Plasmopara viticola (Vines) ([6]; 10 ppm foliar spray only)	POCO (Percentage of Control) disease level, Pyricularia oryzae (Rice) ([7]; 10 ppm foliar spray only)	POCO (Percentage of Control) disease level, Thanatephorus cucumeries (Rice) [8, 9]	POCO (Percentage of Control) disease level, Puccinia recondita (Wheat) [2, 11]
CO/C=C(/Oc1ccccc1OC(=O)NC(=O)c1ccccc1)C(=O)OC [1 (17), (E)-methyl 2-[2-((benzoyl)carbamoyloxy)phenoxy]-3-methoxypropenoate]	24 (20 and 24 = 10.1-20% disease present)	24 (20 and 24 = 10.1-20% disease present)	94 (90 and 94 = 60.1-100% disease present)	0 (0 = 0% disease present)	94 (90 and 94 = 60.1-100% disease present)	24 (20 and 24 = 10.1-20% disease present)	94 (90 and 94 = 60.1-100% disease present)	–	–	–	–	–	–	–	–	–	–
COC=C(C(=O)OC)c1ccccc1COC(=O)n1ccc2ccccc21 [1 (133)]	–	–	–	–	–	–	–	90 (90 and 94 = 60.1-100% disease present)	90+ (90 and 94 = 60.1-100% disease present)	60 (60 = 30.1-60% disease present)	90 (90 and 94 = 60.1-100% disease present)	30 (30 = 20.1-30% disease present)	90 (90 and 94 = 60.1-100% disease present)	0 (0 = 0% disease present)	90 (90 and 94 = 60.1-100% disease present)	–	–
CO/C=C(/C(=O)OC)c1ccccc1COC(=O)Nc1cccc(C(F)(F)F)c1 [2 (1), (E)-methyl 3-methoxy-2-[2-((3-trifluoromethylphenyl)carbamoyloxymethyl)phenyl]-propenoate]	10 (10 = 5.1-10% disease present)	10 (10 = 5.1-10% disease present)	20 (20 and 24 = 10.1-20% disease present)	0 (0 = 0% disease present)	60 (60 = 30.1-60% disease present)	10 (10 = 5.1-10% disease present)	5 (5 = 3.1-5% disease present)	–	–	–	–	–	–	–	–	60 (60 = 30.1-60% disease present)	–
COC=C(C(=O)OC)c1ccccc1COC(=O)N(C)c1cccc(C(F)(F)F)c1 [2 (2)]	90 (90 and 94 = 60.1-100% disease present)	0 (0 = 0% disease present)	0 (0 = 0% disease present)	0 (0 = 0% disease present)	0 (0 = 0% disease present)	0 (0 = 0% disease present)	5 (5 = 3.1-5% disease present)	–	–	–	–	–	–	–	–	30 (30 = 20.1-30% disease present)	–
COC=C(C(=O)OC)c1ccccc1COC(=S)Nc1cccc(C(F)(F)F)c1 [2 (6)]	60 (60 = 30.1-60% disease present)	30 (30 = 20.1-30% disease present)	60 (60 = 30.1-60% disease present)	3 (3 = 1.1-3% disease present)	60 (60 = 30.1-60% disease present)	30 (30 = 20.1-30% disease present)	5 (5 = 3.1-5% disease present)	–	–	–	–	–	–	–	–	90 (90 and 94 = 60.1-100% disease present)	–
COC=C(C(=O)OC)c1ccccc1COC(=O)N1CCCCC1 [2 (133)]	90 (90 and 94 = 60.1-100% disease present)	–	90 (90 and 94 = 60.1-100% disease present)	5 (5 = 3.1-5% disease present)	60 (60 = 30.1-60% disease present)	5 (5 = 3.1-5% disease present)	20 (20 and 24 = 10.1-20% disease present)	–	–	–	–	–	–	–	–	90 (90 and 94 = 60.1-100% disease present)	90+ (90 and 94 = 60.1-100% disease present)
COC=C(C(=O)OC)c1ccccc1COC(=O)Nc1ccccc1F [3 (1)]	30 (30 = 20.1-30% disease present)	0 (0 = 0% disease present)	0 (0 = 0% disease present)	1 (1 = 0.1-1% disease present)	0 (0 = 0% disease present)	0 (0 = 0% disease present)	90 (90 and 94 = 60.1-100% disease present)	–	–	–	–	–	–	–	–	90 (90 and 94 = 60.1-100% disease present)	–
CO/C=C(/C(=O)OC)c1ccccc1COC(=O)NN1CCOCC1 [3 (133), (E)-methyl 3-methoxy-2-[2-(morpholinocarbamoyloxymethyl)phenyl]propenoate]	90 (90 and 94 = 60.1-100% disease present)	–	90 (90 and 94 = 60.1-100% disease present)	60 (60 = 30.1-60% disease present)	90 (90 and 94 = 60.1-100% disease present)	90 (90 and 94 = 60.1-100% disease present)	90 (90 and 94 = 60.1-100% disease present)	–	–	–	–	–	–	–	–	90 (90 and 94 = 60.1-100% disease present)	90+ (90 and 94 = 60.1-100% disease present)
COC=C(C(=O)OC)c1ccccc1COC(=O)NCc1ccccc1 [4 (1)]	60 (60 = 30.1-60% disease present)	30 (30 = 20.1-30% disease present)	30 (30 = 20.1-30% disease present)	60 (60 = 30.1-60% disease present)	90 (90 and 94 = 60.1-100% disease present)	20 (20 and 24 = 10.1-20% disease present)	90 (90 and 94 = 60.1-100% disease present)	–	–	–	–	–	–	–	–	90 (90 and 94 = 60.1-100% disease present)	–
CCN(C(=O)OCc1ccccc1C(=COC)C(=O)OC)c1cccc([N+](=O)[O-])c1F [106 (3)]	90 (90 and 94 = 60.1-100% disease present)	–	60 (60 = 30.1-60% disease present)	0 (0 = 0% disease present)	30 (30 = 20.1-30% disease present)	0 (0 = 0% disease present)	–	–	–	–	–	–	–	–	–	0 (0 = 0% disease present)	60+ (60 = 30.1-60% disease present)

— patent US6465457B1 (priority 1991, dated 2002)
